Measured values: ChEMBL document CHEMBL5634144, “Design, synthesis and biological evaluation of novel DCLK1 inhibitor containing purine skeleton for the treatment of pancreatic cancer” (Eur J Med Chem, 2023)
Activity calls are given as the source filed them. No cut-off for these calls is given here.

Columns and labels:
SW1990 [1] = assay: Induction of apoptosis in human SW1990 cells assessed as early apoptotic cells at 10 uM incubated for 6 days by Annexin V/PI staining based flow cytometry (reference value: 4.55 %); assay type: functional; conditions: time 6 day
SW1990 [2] = assay: Inhibition of cell invasion in human SW1990 cells at 10 uM by transwell assay; assay type: functional, cell-based
[3] = target: T1, Serine/threonine-protein kinase DCLK1 (Homo sapiens, UniProt O15075); assay: Inhibition of DCLK1 (unknown origin) preincubated for 10 mins followed by substrate/ATP addition measured after 60 mins by mobility shift assay
T1 sequence (O15075 whole entry): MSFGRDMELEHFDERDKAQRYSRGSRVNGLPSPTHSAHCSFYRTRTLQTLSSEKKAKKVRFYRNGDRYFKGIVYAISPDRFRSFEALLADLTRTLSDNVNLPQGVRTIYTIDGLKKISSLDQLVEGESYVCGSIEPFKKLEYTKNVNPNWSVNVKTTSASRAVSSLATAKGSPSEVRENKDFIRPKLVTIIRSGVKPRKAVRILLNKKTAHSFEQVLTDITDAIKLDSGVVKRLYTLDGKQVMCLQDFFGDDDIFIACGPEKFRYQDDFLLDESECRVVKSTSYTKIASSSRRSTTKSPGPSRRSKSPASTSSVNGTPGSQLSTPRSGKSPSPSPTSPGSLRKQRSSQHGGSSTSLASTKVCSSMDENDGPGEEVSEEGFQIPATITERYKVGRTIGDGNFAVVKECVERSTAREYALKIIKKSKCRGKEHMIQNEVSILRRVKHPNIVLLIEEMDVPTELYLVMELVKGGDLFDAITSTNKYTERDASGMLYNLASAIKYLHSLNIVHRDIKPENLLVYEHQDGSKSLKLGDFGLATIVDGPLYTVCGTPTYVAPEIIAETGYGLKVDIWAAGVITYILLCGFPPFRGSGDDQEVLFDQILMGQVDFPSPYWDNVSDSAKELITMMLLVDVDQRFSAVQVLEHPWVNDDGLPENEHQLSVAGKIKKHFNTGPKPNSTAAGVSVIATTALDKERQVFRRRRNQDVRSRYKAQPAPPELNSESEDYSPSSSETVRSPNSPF

SW1990 [4] = assay: Antiproliferative activity against human SW1990 cells assessed as inhibition cell proliferation incubated for 6 days by MTT assay; assay type: functional, cell-based; conditions: SW1990, 144 h
SW1990 [5] = assay: Inhibition of cell migration in human SW1990 cells at 10 uM by transwell assay; assay type: functional, cell-based
[6] = target: T1, Serine/threonine-protein kinase DCLK1; assay: Inhibition of DCLK1 (unknown origin) in presence of 33P-ATP
SW1990 [7] = assay: Induction of cell cycle arrest at G2/M phase in human SW1990 cells at 10 uM incubated for 6 days by PI staining based flow cytometry (reference value: 29.15 %); assay type: functional; conditions: time 6 day
HCT-116 = assay: Antiproliferative activity against human HCT-116 cells assessed as inhibition cell proliferation incubated for 6 days by MTT assay; assay type: functional, cell-based; conditions: HCT-116, 144 h
SW1990 [8] = assay: Induction of apoptosis in human SW1990 cells assessed as late apoptotic cells at 10 uM incubated for 6 days by Annexin V/PI staining based flow cytometry (reference value: 2.01 %); assay type: functional; conditions: time 6 day
SW1990 [9] = assay: Induction of apoptosis in human SW1990 cells assessed as viable cells at 10 uM incubated for 6 days by Annexin V/PI staining based flow cytometry (reference value: 92.93 %); assay type: functional; conditions: SW1990, 144 h, time 6 day, read-out: Activity
SW1990 [10] = assay: Induction of cell cycle arrest at S phase in human SW1990 cells at 10 uM incubated for 6 days by PI staining based flow cytometry (reference value: 21.20 %); assay type: functional; conditions: time 6 day
SW1990 [11] = assay: Induction of cell cycle arrest at G0/G1 phase in human SW1990 cells at 10 uM incubated for 6 days by PI staining based flow cytometry (reference value: 49.65 %); assay type: functional; conditions: time 6 day
CAKI-1 = assay: Antiproliferative activity against human CAKI-1 cells assessed as inhibition cell proliferation incubated for 6 days by MTT assay; assay type: functional, cell-based; conditions: CAKI-1, 144 h
SW1990 [12] = assay: Induction of apoptosis in human SW1990 cells assessed as necrotic cells at 10 uM incubated for 6 days by Annexin V/PI staining based flow cytometry (reference value: 0.50 %); assay type: functional; conditions: time 6 day
SW1990 [13] = assay: Antitumor activity against human SW1990 cells xenografted in BALB/c nude mouse model assessed as tumor growth inhibition at 60 mg/kg, ip for 21 days consecutively relative to control; assay type: functional; conditions: SW1990, 504 h, time 21 day, read-out: TGI

IC50 [3]: 0.0379 µM
IC50 (SW1990 [4]): 14 µM
IC50 [6]: 0.0572 µM
IC50 (HCT-116): 6.2 µM
Compound: COc1cc(N2CCN(C)CC2)ccc1Nc1ncc2c(n1)N(C)c1ccccc1C(=O)N2CC(F)(F)F
Activity (SW1990 [1]): 18.23%
inhibition (SW1990 [2]): Active
inhibition (SW1990 [5]): Active
Activity (SW1990 [7]): 21.75%
Activity (SW1990 [8]): 12.13%
viability at 10 µM (SW1990 [9]): 60.6%
Activity (SW1990 [10]): 16.89%
Activity (SW1990 [11]): 61.36%
IC50 (CAKI-1): 12.2 µM
Activity (SW1990 [12]): 8.99%
inhibition in vivo at 60 mg/kg (SW1990 [13]): 24.8%
